test system: HBV; experiment: HepAD38 anti-HBV assay: reduction of viral product accumulation (virion DNA qPCR, HBsAg/HBeAg ELISA); type: cell-based; details: Hepatitis B virus, 120 h; HepAD38 cells; concentration reducing viral product accumulation by 50% relative to no drug controls; harvest five days after compound addition; read-out: HepAD38 EC50
Method: Methods: HepAD38 cells are maintained as previously reported (Ladner et al, Antimicrob. Agents Chemother. 1997, […], 1715). Briefly, cells are passaged upon attaining confluency in DMEM/F12 media in the presence of 10% FBS, Penn/Strep, 250 μg/mL G418, and 1 μg/ml tetracycline. Novel compounds are screened by first washing cells three times with PBS to remove tetracycline, and plating in 96 well plates at 35,000 cells/well. Compounds dissolved in DMSO are then diluted 1:200 into wells containing cells. Five days after compound addition, material is harvested for analysis. For an extended 8 day analysis, cells are plated and treated as described above, but media and compound are refreshed on d2 and d5 post initial treatment.
On harvest day, virion DNA is obtained by lysing with Sidestep Lysis and Stabilization Buffer and then quantified via quantitative real time PCR. Commercially available ELISA kits are used to quantitate the viral proteins HBsAg (Alpco) or HbeAg (US Biological) by following the manufacturer's recommended protocol after diluting samples to match the linear range of their respective assays. Irrespective of readout, compound concentrations that reduce viral product accumulation in the cell lysates or supernatants by 50% relative to no drug controls (EC50) are reported; EC50 ranges are as follows: A<0.1 μM; B 0.1-0.4 μM; C>0.4 μM.

SMILES	EC50
O=S(=O)(N[C@H]1CC2=C(c3ccn(C(F)F)n3)[C@H](c3ccc(F)cc3Cl)N=C(c3nccs3)N2C1)c1ccc(C(F)(F)F)cc1 [Example 406]	< 100 nM
CC1(S(=O)(=O)N[C@H]2CC3=C(c4ccn(C(F)F)n4)[C@H](c4ccc(F)cc4Cl)N=C(c4nccs4)N3C2)CC1 [Example 405]	< 100 nM
O=S(=O)(N[C@H]1CC2=C(c3ccn(C(F)F)n3)[C@H](c3ccc(F)cc3Cl)N=C(c3nccs3)N2C1)N1C[C@@H](O)[C@H](O)C1 [Example 102]	< 100 nM
C[C@H]1CN(S(=O)(=O)N[C@H]2CC3=C(c4ccn(C(F)F)n4)[C@H](c4ccc(F)cc4Cl)N=C(c4nccs4)N3C2)C[C@@H]1C [Example 300]	< 100 nM
CC(C)C[C@@H](NS(=O)(=O)N[C@H]1CC2=C(c3ccn(C(F)F)n3)[C@H](c3ccc(F)cc3Cl)N=C(c3nccs3)N2C1)c1ccccn1 [Example 360]	100 to 400 nM
O[C@]1(CNCc2ccccc2)CC2=C(c3ccn(C(F)F)n3)[C@H](c3ccc(F)cc3Cl)N=C(c3nccs3)N2C1 [Example 118]	> 400 nM
O=C(N[C@H]1CC2=C(c3ccn(C(F)F)n3)[C@H](c3ccc(F)cc3Cl)N=C(c3nccs3)N2C1)N1CC[C@@H](O)C1 [Example 225]	< 100 nM
O=C(N[C@H]1CC2=C(c3ccn(C(F)F)n3)[C@H](c3ccc(F)cc3Cl)N=C(c3nccs3)N2C1)N1CCC(CO)CC1 [Example 216]	100 to 400 nM
COC(=O)c1cccc(S(=O)(=O)NCC2(F)CC3=C(c4ccn(C(F)F)n4)[C@H](c4ccc(F)cc4Cl)N=C(c4nccs4)N3C2)c1 (stereo partly drawn) [Example 190]	> 400 nM
C#CCNC[C@@]1(O)CC2=C(c3ccn(C(F)F)n3)[C@H](c3ccc(F)cc3Cl)N=C(c3nccs3)N2C1 [Example 114]	> 400 nM
O=C(N[C@H]1CC2=C(c3ccn(C(F)F)n3)[C@H](c3ccc(F)cc3Cl)N=C(c3nccs3)N2C1)N1CCC[C@H](O)C1 [Example 229]	100 to 400 nM
O=S(=O)(N[C@H]1CC2=C(c3ccn(C(F)F)n3)[C@H](c3ccc(F)cc3Cl)N=C(c3nccs3)N2C1)c1ccc(F)cc1 [Example 392]	100 to 400 nM
O=C(N[C@H]1CC2=C(c3ccn(C(F)F)n3)[C@H](c3ccc(F)cc3Cl)N=C(c3nccs3)N2C1)c1cccnc1 [Example 227]	< 100 nM
O=C(N[C@H]1CC2=C(c3ccn(C(F)F)n3)[C@H](c3ccc(F)cc3Cl)N=C(c3nccs3)N2C1)c1cnccn1 [Example 233]	< 100 nM
COCCOC[C@]1(O)CC2=C(c3ccn(C(F)F)n3)[C@H](c3ccc(F)cc3Cl)N=C(c3nccs3)N2C1 [Example 113]	> 400 nM
Fc1ccc([C@@H]2N=C(c3nccs3)N3C[C@@H](Nc4cccc(-c5ccccn5)c4)CC3=C2c2ccn(C(F)F)n2)c(Cl)c1 [Example 331]	100 to 400 nM
CS(=O)(=O)N1CCN(C(=O)N[C@H]2CC3=C(c4ccn(C(F)F)n4)[C@H](c4ccc(F)cc4Cl)N=C(c4nccs4)N3C2)CC1 [Example 222]	100 to 400 nM
CC(C)(CNS(=O)(=O)N[C@H]1CC2=C(c3ccn(C(F)F)n3)[C@H](c3ccc(F)cc3Cl)N=C(c3nccs3)N2C1)c1ccccn1 [Example 315]	100 to 400 nM
CC(O)[C@]1(F)CC2=C(c3ccn(C(F)F)n3)[C@H](c3ccc(F)cc3Cl)N=C(c3nccs3)N2C1 (stereo partly drawn) [Example 176]	< 100 nM
COC(=O)N1CCN(C(=O)N[C@H]2CC3=C(c4ccn(C(F)F)n4)[C@H](c4ccc(F)cc4Cl)N=C(c4nccs4)N3C2)CC1 [Example 221]	100 to 400 nM
CCOC(=O)Cc1ccccc1S(=O)(=O)N[C@H]1CC2=C(c3ccn(C(F)F)n3)[C@H](c3ccc(F)cc3Cl)N=C(c3nccs3)N2C1 [Example 30]	100 to 400 nM
O=C(N[C@H]1CC2=C(c3ccn(C(F)F)n3)[C@H](c3ccc(F)cc3Cl)N=C(c3nccs3)N2C1)N1CCC(O)(c2nccs2)CC1 [Example 244]	100 to 400 nM
CC(C)[C@@H](NS(=O)(=O)N[C@H]1CC2=C(c3ccn(C(F)F)n3)[C@H](c3ccc(F)cc3Cl)N=C(c3nccs3)N2C1)c1ccccn1 [Example 341]	100 to 400 nM
O=C(N[C@H]1CC2=C(c3ccn(C(F)F)n3)[C@H](c3ccc(F)cc3Cl)N=C(c3nccs3)N2C1)N1CCC(O)(c2ncc[nH]2)CC1 [Example 247]	> 400 nM
O=C(O)c1ccccc1CS(=O)(=O)N[C@H]1CC2=C(c3ccn(C(F)F)n3)[C@H](c3ccc(F)cc3Cl)N=C(c3nccs3)N2C1 [Example 23]	100 to 400 nM
O=S(=O)(NCc1nccs1)N[C@H]1CC2=C(c3ccn(C(F)F)n3)[C@H](c3ccc(F)cc3Cl)N=C(c3nccs3)N2C1 [Example 307]	< 100 nM
O=C(O)C1CCN(S(=O)(=O)N[C@H]2CC3=C(c4ccn(C(F)F)n4)[C@H](c4ccc(F)cc4Cl)N=C(c4nccs4)N3C2)CC1 [Example 90]	< 100 nM

SMILES	EC50
O[C@@]1(CNCc2ccccc2)CC2=C(c3ccn(C(F)F)n3)[C@H](c3ccc(F)cc3Cl)N=C(c3nccs3)N2C1 [Example 119]	> 400 nM
C[C@H](NC(=O)CC1(S(=O)(=O)N[C@H]2CC3=C(c4ccn(C(F)F)n4)[C@H](c4ccc(F)cc4Cl)N=C(c4nccs4)N3C2)CC1)c1ccccn1 [Example 374]	< 100 nM
O=C(Nc1ccccn1)OCCCS(=O)(=O)N[C@H]1CC2=C(c3ccn(C(F)F)n3)[C@H](c3ccc(F)cc3Cl)N=C(c3nccs3)N2C1 [Example 327]	< 100 nM
C[C@@H](NS(=O)(=O)N[C@H]1CC2=C(c3ccn(C(F)F)n3)[C@H](c3ccc(F)cc3Cl)N=C(c3nccs3)N2C1)c1ccccn1 [Example 159]	> 400 nM
CCOC(=O)N[C@H]1CC2=C(c3ccn(C(F)F)n3)[C@H](c3ccc(F)cc3Cl)N=C(c3nccs3)N2C1 [Example 201]	< 100 nM
O=S(=O)(N[C@H]1CC2=C(c3ccn(C(F)F)n3)[C@H](c3ccc(F)cc3Cl)N=C(c3nccs3)N2C1)c1cccc(Br)n1 [Example 366]	< 100 nM
O=C(O)CS(=O)(=O)N[C@H]1CC2=C(c3ccn(C(F)F)n3)[C@H](c3ccc(F)cc3Cl)N=C(c3nccs3)N2C1 [Example 18]	> 400 nM
CCOC(=O)/C=C/[C@]1(F)CC2=C(c3ccn(C(F)F)n3)[C@H](c3ccc(F)cc3Cl)N=C(c3nccs3)N2C1 [Example 172]	100 to 400 nM
O=C(N[C@H]1CC2=C(c3ccn(C(F)F)n3)[C@H](c3ccc(F)cc3Cl)N=C(c3nccs3)N2C1)C1(c2ccccn2)CC1 [Example 322]	100 to 400 nM
COC(=O)c1ccc(Cl)c(S(=O)(=O)N[C@H]2CC3=C(c4ccn(C(F)F)n4)[C@H](c4ccc(F)cc4Cl)N=C(c4nccs4)N3C2)c1 [Example 24]	100 to 400 nM
C=CCN(C[C@@]1(O)CC2=C(c3ccn(C(F)F)n3)[C@H](c3ccc(F)cc3Cl)N=C(c3nccs3)N2C1)S(C)(=O)=O [Example 128]	> 400 nM
O=S(=O)(CCCc1nnn[nH]1)N[C@H]1CC2=C(c3ccn(C(F)F)n3)[C@H](c3ccc(F)cc3Cl)N=C(c3nccs3)N2C1 [Example 137]	> 400 nM
Fc1ccc([C@@H]2N=C(c3nccs3)N3C[C@@H](N4CCNCC4)CC3=C2c2ccn(C(F)F)n2)c(Cl)c1 [Example 45]	> 400 nM
OC[C@@]1(F)CC2=C(c3ccn(C(F)F)n3)[C@H](c3ccc(F)cc3Cl)N=C(c3nccs3)N2C1 [Example 166]	100 to 400 nM
O=S(=O)(NC1CCC1)N[C@H]1CC2=C(c3ccn(C(F)F)n3)[C@H](c3ccc(F)cc3Cl)N=C(c3nccs3)N2C1 [Example 415]	< 100 nM
O=C(NC[C@@]1(F)CC2=C(c3ccn(C(F)F)n3)[C@H](c3ccc(F)cc3Cl)N=C(c3nccs3)N2C1)OCc1ccccc1 [Example 187]	> 400 nM
O=C1NCC2(CCN(S(=O)(=O)N[C@H]3CC4=C(c5ccn(C(F)F)n5)[C@H](c5ccc(F)cc5Cl)N=C(c5nccs5)N4C3)CC2)O1 [Example 163]	< 100 nM
O=S(=O)(N[C@H]1CC2=C(c3ccn(C(F)F)n3)[C@H](c3ccc(F)cc3Cl)N=C(c3nccs3)N2C1)N1CCC2(CC2)C1 [Example 286]	< 100 nM
CC1(C)CCCCN1S(=O)(=O)N[C@H]1CC2=C(c3ccn(C(F)F)n3)[C@H](c3ccc(F)cc3Cl)N=C(c3nccs3)N2C1 [Example 295]	< 100 nM
COC(=O)CS(=O)(=O)N[C@H]1CC2=C(c3ccn(C(F)F)n3)[C@H](c3ccc(F)cc3Cl)N=C(c3nccs3)N2C1 [Example 12]	100 to 400 nM
CS(=O)(=O)C[C@]1(O)CC2=C(c3ccn(C(F)F)n3)[C@H](c3ccc(F)cc3Cl)N=C(c3nccs3)N2C1 [Example 145]	> 400 nM
O=C(N[C@H]1CC2=C(c3ccn(C(F)F)n3)[C@H](c3ccc(F)cc3Cl)N=C(c3nccs3)N2C1)C1CCCCC1 [Example 239]	100 to 400 nM
COC(=O)c1ccc(C)c(S(=O)(=O)N[C@H]2CC3=C(c4ccn(C(F)F)n4)[C@H](c4ccc(F)cc4Cl)N=C(c4nccs4)N3C2)c1 [Example 25]	100 to 400 nM
COC(=O)C1CCCN(C(=O)C2CCCN(CCS(=O)(=O)N[C@H]3CC4=C(c5ccn(C(F)F)n5)[C@H](c5ccc(F)cc5Cl)N=C(c5nccs5)N4C3)C2)C1 (stereo partly drawn) [Example 67]	> 400 nM
O=C(O)c1ccc(S(=O)(=O)N[C@H]2CC3=C(c4ccn(C(F)F)n4)[C@H](c4ccc(F)cc4Cl)N=C(c4nccs4)N3C2)cc1 [Example 6]	< 100 nM
CC1(NS(=O)(=O)N[C@H]2CC3=C(c4ccn(C(F)F)n4)[C@H](c4ccc(F)cc4Cl)N=C(c4nccs4)N3C2)CCC1 [Example 416]	< 100 nM
C=CS(=O)(=O)N[C@H]1CC2=C(c3ccn(C(F)F)n3)[C@H](c3ccc(F)cc3Cl)N=C(c3nccs3)N2C1 [Example 50]	100 to 400 nM
